From patent publication US11187660B2, “Fluorescent probes for monitoring voltage by photo-induced electron transfer” (The Regents of the University of California, priority 2011, dated 2021) come the findings set out here.

Structures are written as SMILES. Several values for one entry are separate records, joined by “and”; a condition that tells them apart may be missing. Equal entries are not always repeated.

The subject of one data set is HEK293 cells. The experiment in a line: Voltage sensitivity of fluorescence in voltage-clamped HEK cells (whole-cell recording). Type of data set: cell-based, human. Conditions: for voltage sensitivity ΔF/F per 100 mV: HEK293 cells voltage-clamped at −60 mV holding potential. The text has this: Membrane voltage of cells loaded with VF1.4.Cl or VF2.4.Cl were controlled by making tight-seal whole-cell recordings. Cells were maintained at a holding potential of −60 mV and stepped for 50 ms to various depolarizing and hyperpolarizing potentials (FIG. 5A), while simultaneously acquiring epifluorescence images. For both sensors, depolarizing steps result in fluorescence increases while hyperpolarizing steps decrease fluorescence intensity, in keeping with our proposed mechanism. […] For di-4-ANEPPS, typical values are 0.08-0.12% per mV. The larger changes for VF1.4.Cl and VF2.4.Cl compared to di-4-ANEPPS are somewhat expected, since a PeT-based voltage sensor samples the entire emission spectrum, whereas electrochromic dyes are limited to the edge of the spectrum only. For both probes, the voltage responses are linear across the physiologically relevant ranges of −100 mV to +100 mV. To assess the speed of the optical response to voltage, VF2.4.Cl signals were monitored in response to voltage steps of 100 mV from a holding potential of −60 mV.
We characterized the voltage sensitivity of all three indicators by making tight-seal whole-cell recordings of HEK293 cells stained with the VF sensors. Cells were voltage-clamped at −60 mV holding potential and sequentially stepped to depolarizing and hyperpolarizing potentials at 20-mV increments (FIG. 9B). For all three dyes, depolarizing steps produced fluorescence increases, whereas hyperpolarizing steps produced fluorescence decreases, in keeping with the proposed PeT mechanism. The fluorescence response is linear over the range of −100 mV to +100 mV (FIG. 9C), with voltage sensitivities ΔF/F per 100 mV of 20±1% for VF1.4.Cl and 25±1% for VF2.4.Cl. This statistically significant increase in voltage sensitivity (P<0.05, two-tailed Student t test) is expected upon increasing the length of the molecular wire, and is 2.5- to 4-times more sensitive than di-4-ANEPPS, which, in our hands, gives sensitivities of between 6% and 10% ΔF/F per 100 mV. […] To investigate the speed of response of VF probes, we again made whole-cell recordings of cells stained with VF2.4.Cl, applied 100-mV depolarizing steps from a holding potential of −60 mV, and recorded both the electrophysiological signals and the optical signals.
Electrophysiological recordings of HEK293 cells and cultured neurons were performed with an Axopatch 200A or 200B amplifier (Molecular Devices) at room temperature. The signals were digitized with Digidata 1332A and recorded with pCLAMP 9 software (Molecular Devices) on a PC. Analysis of electrophysiological data was done with AxoGraph X (AxoGraphX), pCLAMP 9, and/or ClampFit (Molecular Devices). For most experiments the extracellular solution consisted of (in mM) 145 NaCl, 20 glucose, 10 HEPES, 3 KCl, 2 CaCl2, 1 MgCl2 (pH 7.35, 310 mOsm). The intracellular solution contained (in mM) 115 potassium gluconate, 10 BAPTA tetrapotassium salt, 10 HEPES, 5 NaCl, 10 KCl, 2 ATP disodium salt, 0.3 GTP trisodium salt (pH 7.25, 290 mOsm).
For studies to determine excitation sensitivity of dyes, illumination was provided by a Polychrom IV light source (T.I.L.L. Photonics GMBH) with a mechanical shutter (Uniblitz VS25). For all other studies, light was provided by an Xenon arc lamp powered by an Optiquip Power supply (Optiquip) with a mechanical shutter controlled by a Lambda 10-2 controller (Sutter). […]

Data set [1] in a line: Absorbance and emission spectra in aqueous buffer with Triton X-100. It counts as physicochemical. Conditions: 5 mM sodium phosphate, pH 9, 0.1% Triton X-100. As to the method:
FIG. 8A, FIG. 8B, and FIG. 8C show the normalized absorbance and emission spectra for exemplary compounds of the invention in 5 mM sodium phosphate, pH 9 with 0.1% Triton X-100. Black lines are absorbance spectra; grey lines are emission spectra. a) VF1.4.Cl, b) VF2.4.Cl, and c) VF2.1.Cl.
All dyes feature emission and excitation profiles typical of dichlorofluoresceins (VF1.4.Cl: λmax=521 nm, ε=93,000 M^−1·cm^−1, λem=534 nm, Φ=0.24; VF2.4.Cl: λmax=522 nm, ε=97,000 M^−1·cm^−1, λem=536 nm, Φ=0.054; VF2.1.Cl: λmax=522 nm, ε=98 000 M^−1·cm^−1, λcm=535 nm, Φ=0.057, 5 mM sodium phosphate, pH 9, 0.1% Triton X-100) (FIG. 8).
UV absorbance and fluorescence spectra were recorded on a Cary 3E (Varian) and Fluorolog 2 (Spex) fluorimeter, respectively. Analytical, semi-preparative, and preparative HPLCs were performed on Agilent HPLCs, with Luna C18(2) columns (Phenomenex) using water (solvent A) and acetonitrile (solvent B) with 0.05% TFA as an additive. Low resolution ESI mass spectrometry was performed on an Agilent LC/MSD Trap XCT coupled to an Agilent HPLC. High resolution mass spectra were acquired on a ThermoFisher Orbitrap XL hybrid mass spectrometer. ^1H NMR spectra were collected in CDCl3 or d6-DMSO (Cambridge Isotope Laboratories, Cambridge, Mass.) at 25° C. on a 400 Varian Mercury Plus or Jeol ECA 500 spectrometer at the Department of Chemistry and Biochemistry NMR Facility at the University of California, San Diego. All chemical shifts are reported in the standard δ notation of parts per million using the peak of residual proton signals of CDCl3 or d6-DMSO as an internal reference.

Take `CN(C)c1ccc(/C=C/c2ccc(/C=C/c3ccc(-c4c5cc(Cl)c(=O)cc-5oc5cc(O)c(Cl)cc45)c(S(=O)(=O)O)c3)cc2)cc1` [VF2.1.Cl, 5-(4-(4-(dimethyllamino)styryl)styryl)-2-(2,7-dichloro-6-hydroxy-3-oxo-3H-xanthen-9-yl)benzenesulfonic acid]: the “voltage sensitivity ΔF/F per 100 mV” value in the data set with HEK293 cells worked out at 27±1%. Also, in data set [1], the Φ is given as 0.057, the ε is on record as 98 000 M^−1·cm^−1, the λem was found to be 535 nm and the λmax is given as 522 nm.
For `CCCCN(CCCC)c1ccc(/C=C/c2ccc(/C=C/c3ccc(-c4c5cc(Cl)c(=O)cc-5oc5cc(O)c(Cl)cc45)c(S(=O)(=O)O)c3)cc2)cc1` [VF2.4.Cl, 5-(4-(4-(dibutylamino)styryl)styryl)-2-(2,7-dichloro-6-hydroxy-3-oxo-3H-xanthen-9-yl)benzenesulfonic acid], the “voltage sensitivity ΔF/F per 100 mV” value in the data set with HEK293 cells was found to be 25±1%. Moreover, in the data set on HEK293 cells (HEK cells, holding potential −60 mV), the “sensitivity, fractional fluorescence change (ΔF/F) versus change in membrane potential” value is 0.25±0.01 % per mV and 0.25 % per mV. Besides, in data set [1], the Φ is 0.054, the ε is 97,000 M^−1·cm^−1, the λem worked out at 536 nm and the λmax was 522 nm.
